Read-outs that look alike come from different tables or passages of the source.
Legend:
[1] = system: SR; conditions: cited from earlier work
[2] = system: cytochrome P-450 in the 2B subfamily; conditions: mouse, in vivo; cited from earlier work
[3] = system: AhR, CAR, PXR, PPAR, LXR, SR and RXR
[4] = system: PXR; experiment: Aggregate nuclear receptor activity: PXR; parameters: species or system human
From the text: (§1) To summarize the activity of chemicals across the NR superfamily we aggregated the ToxCast assays for genes and NR groups as follows: retinoic X receptor-like (RXR; [drawing 5]; NR2B); peroxisome proliferator-activated receptor-like (PPAR; [drawing 6]; NR1C); constitutive androstane receptor ( [drawing 7]; [drawing 8]; [drawing 9] ); pregnane X receptor ( [drawing 10]; [drawing 11] ); liver X receptor-like (LXR; [drawing 12] , FXR; NR1H); and steroid receptor-like (SR; [drawing 13] , [drawing 14] , [drawing 15] ). These are shown visually in Figure 1(a). As there were differences in the number and types of assays for each group, aggregate activity was calculated as the average potency across the assays measured by the AC50 or LEC (described in Methods). This approach aggregated NR binding, activation, agonism or antagonism results into a single assessment of activity.
(§2) All data used in this analysis are publicly available from the ToxCast website (www.epa.gov/toxcast). The analysis was conducted using the R statistical language (www.r-project.org). For each chemical [drawing 77] , and assay [drawing 78] combination we derived either the AC50 (50% maximal activity concentration) or LEC (Lowest Effective Concentration) in [drawing 79] M denoted as, [drawing 80] . All chemicals are provided in Dataset S3 and all assays are given in Dataset S1. The procedure for evaluating the quality of [drawing 81] are described in the supplementary methods (Text S1) and all assay results are provided in Dataset S2. In order to facilitate comparison across the assays the [drawing 82] were transformed by the formula, [drawing 83] where [drawing 84] represents a the potency on an ascending scale, and [drawing 85] is the maximum concentration (lowest potency) across the data set.
(§3) The aggregate NR activity [drawing 86] , where [drawing 87] , was calculated using assays [drawing 88] . The aggregate scaled NR activity score for each chemical [drawing 89] was calculated as the average concentration value across the assays, scaled by the maximum value across all chemicals using Equation 1. [drawing 90] (1)

[5] = system: SR (steroid receptor-like); experiment: Aggregate nuclear receptor activity: SR; conditions: aggregate human NR activity, in words
From the text: as §1, §2, §3

[6] = system: CAR; experiment: Aggregate nuclear receptor activity: CAR; conditions: aggregate human NR activity, in words
From the text: as §1, §2, §3

[7] = system: liver; experiment: Cancer lesion progression: 2-year chronic rat and mouse liver histopathology (ToxRefDB), lesion progression groups (LPG); conditions: liver lesions after 2-year chronic treatment, ToxRefDB data clustered into groups I-VIII
[8] = system: AhR; experiment: Aggregate nuclear receptor activity: AhR; conditions: aggregate human NR activity, in words
From the text: as §1, §2, §3

[9] = system: PPAR; parameters: method as in PMID 17084873; conditions: in rats; cited from earlier work
[10] = system: PPAR; experiment: Aggregate nuclear receptor activity: PPAR; conditions: aggregate human NR activity, in words
From the text: as §1, §2, §3

[11] = system: liver; conditions: in vivo
[12] = system: LXR; experiment: Aggregate nuclear receptor activity: LXR; conditions: aggregate human NR activity, in words
From the text: as §1, §2
as §3, with “(1)” left out

[13] = system: human PXR; parameters: method as in PMID 16565514; conditions: cited from earlier work
[14] = aggregate human NR activity, in words

SMILES | activity with PXR [4, 14] | activity with SR [5] | activity with CAR [6] | activity with AhR [8] | activity with PPAR [10] | lesion progression group (LPG) [11] | also measured
CNC(=O)Oc1cccc2ccccc12 [Carbaryl, naphthalen-1-yl methylcarbamate] | – | – | – | – | – | – | SR activity [1]: activity
CC(C1CC1)C(O)(Cn1cncn1)c1ccc(Cl)cc1 (stereo not shown) [Cyproconazole, 2-(4-chlorophenyl)-3-cyclopropyl-1-(1H-1,2,4-triazol-1-yl)butan-2-ol] | – | – | – | – | – | – | expression of a cytochrome P-450 in the 2B subfamily [2]: induce expression
CCCCOC(=O)c1ccccc1C(=O)OCCCC [Dibutyl phthalate, dibutyl phthalate] | – | – | – | – | – | – | overall NR activity [3]: low NR activity
COC(=O)C(C)Oc1ccc(Oc2ccc(Cl)cc2Cl)cc1 (stereo not shown) [Diclofop-methyl, methyl 2-[4-(2,4-dichlorophenoxy)phenoxy]propanoate] | some activity | some activity | some activity | some activity | most consistently active | – | lesion progression group (LPG) [7]: I; PPAR activity [9]: active
CC[C@H](C)[C@H]1O[C@]2(C=C[C@@H]1C)C[C@@H]1C[C@@H](C/C=C(\C)[C@@H](O[C@H]3C[C@H](OC)[C@@H](O[C@H]4C[C@H](OC)[C@@H](NC)[C@H](C)O4)[C@H](C)O3)[C@@H](C)/C=C/C=C3\CO[C@@H]4[C@H](O)C(C)=C[C@@H](C(=O)O1)[C@]34O)O2.O=C(O)c1ccccc1 [Emamectin benzoate, (2aE,4E,5\S,6S,6\R,7S,8E,11R,13S,15S,17aR,20R,20aR,20bS)-20,20b-dihydroxy-5\,6,8,19-tetramethyl-6\-[(1S)-1-methylpropyl]-17-oxo-5\,6,6\,10,11,14,15,17,17a,20,20a,20b-dodecahydro-2H,7H-spiro[11,15-methanofuro[4,3,2-pq][2,6]benzodioxacyclooctadecine-13,2\-pyran]-7-yl 2,6-dideoxy-3-O-methyl-4-O-[2,4,6-trideoxy-3-O-methyl-4-(methylammonio)-a-L-arabino-hexopyranosyl]-a-L-arabino-hexopyranoside benzoate] | – | – | – | – | – | Emamectin benzoate | –
N#Cc1c[nH]cc1-c1cccc2c1OC(F)(F)O2 [Fludioxonil, 4-(2,2-difluoro-1,3-benzodioxol-4-yl)-1H-pyrrole-3-carbonitrile] | consistently active | less frequently | – | – | less frequently | – | activity with LXR [12]: less frequently
CS(=O)(=O)c1cc(C(F)(F)F)ccc1C(=O)c1cnoc1C1CC1 [Isoxaflutole, (5-cyclopropylisoxazol-4-yl)[2-(methylsulfonyl)-4-(trifluoromethyl)phenyl]methanone] | – | – | – | – | – | I | –
CCOC(=O)C(C)OC(=O)c1cc(Oc2ccc(C(F)(F)F)cc2Cl)ccc1[N+](=O)[O-] (stereo not shown) [Lactofen, 2-ethoxy-1-methyl-2-oxoethyl 5-[2-chloro-4-(trifluoromethyl)phenoxy]-2-nitrobenzoate] | – | less frequently | consistently active | consistently active | less frequently | I | activity with LXR [12]: less frequently; activity with PXR [4]: consistently active
Cl[C@H]1[C@H](Cl)[C@@H](Cl)[C@@H](Cl)[C@H](Cl)[C@H]1Cl [Lindane, (1r,2R,3S,4r,5R,6S)-1,2,3,4,5,6-hexachlorocyclohexane] | active | – | – | active | – | Lindane | –
CCOC(=O)CC(SP(=S)(OC)OC)C(=O)OCC (stereo not shown) [Malathion, diethyl 2-[(dimethoxyphosphorothioyl)thio]succinate] | some activity | some activity | some activity | some activity | most consistently active | – | SR activity [1]: known SR activity
CC(C)Oc1cc(-n2nc(C(C)(C)C)oc2=O)c(Cl)cc1Cl [Oxadiazon, 5-tert-butyl-3-(2,4-dichloro-5-isopropoxyphenyl)-1,3,4-oxadiazol-2(3H)-one] | consistently active | less frequently | consistently active | consistently active | less frequently | I | activity with LXR [12]: less frequently; human PXR activity [13]: known human PXR activity
C=CC1(C)OC(=O)N(c2cc(Cl)cc(Cl)c2)C1=O (stereo not shown) [Vinclozolin, 3-(3,5-dichlorophenyl)-5-methyl-5-vinyl-1,3-oxazolidine-2,4-dione] | – | some activity | – | some activity | most consistently active | I | activity with PXR [4]: some activity; SR activity [1]: known SR active
